According to patent US20220370486A1, “COMBINATION TREATMENT OF SYSTEMIC FUNGAL INFECTIONS” (The Board of Trustees of the University of Illinois, priority 2019, published 2022):
Read-outs that look alike come from different tables or passages of the source.

Tests used:
Test in all cases: Checkerboard broth microdilution (CLSI)
Format in all cases: cell-based
[1] = tested on: A. flavus ATCC 204304; conditions: isolate ATCC 204304
Experimental: (§1) Isolates were tested against varying concentrations of amphotericin B and C2′epiAmB (range, 0.06 to 4 mg/L) and combined with fluconazole (range, 0.12 to 128 mg/L) or ketoconazole (range 0.008 to 8 mg/L) or voriconazole (range, 0.004 to 4 mg/L) using a checkerboard grid design following the Clinical and Laboratory Standards Institute (CLSI) broth microdilution method (M23Ed5).

[2] = tested on: A. flavus SC 1085986; conditions: isolate 1085986
Experimental: as §1

[3] = tested on: A. fumigatus 1077391; conditions: isolate 1077391
Experimental: as §1

[4] = tested on: A. fumigatus ATCC MYA-3626; conditions: isolate ATCC MYA-3626; for MIC: single agent
Experimental: as §1

[5] = tested on: C. albicans 967374; conditions: isolate 967374
Experimental: as §1

[6] = tested on: C. auris 1081160; conditions: isolate 1081160; for MIC: single agent
Experimental: as §1

[7] = tested on: C. glabrata 1046695; conditions: isolate 1046695; for MIC: single agent
Experimental: as §1

[8] = tested on: C. krusei 975691; conditions: isolate 975691
Experimental: as §1

[9] = tested on: C. krusei ATCC 6258; conditions: isolate ATCC 6258
Experimental: as §1

[10] = tested on: C. parapsilosis 1048737; conditions: isolate 1048737; for MIC: single agent
Experimental: as §1

[11] = tested on: C. parapsilosis ATCC 22019; conditions: isolate ATCC 22019
Experimental: as §1

[12] = tested on: C. tropicalis 1046709; conditions: isolate 1046709
Experimental: as §1

[13] = tested on: F. solani SC 1047542; conditions: isolate 1047542
Experimental: as §1

Q: Which results are given for C[C@@H]1[C@H](O)[C@@H](C)/C=C/C=C/C=C/C=C/C=C/C=C/C=C/[C@H](OC2O[C@H](C)[C@@H](O)[C@H](N)[C@H]2O)CC2O[C@](O)(C[C@@H](O)C[C@@H](O)[C@H](O)CC[C@@H](O)C[C@@H](O)CC(=O)O[C@H]1C)C[C@H](O)[C@H]2C(=O)O (stereo partly drawn) [C2′epiAmB, C2′epi amphotericin B]?
A: MIC ([1]; Aspergillus flavus, ATCC204304, single agent): 2 µg/mL; MIC when added 1 log2 unit lower of azoles' MIC ([1]; with ketoconazole): 2 mg/L; MIC when added 1 log2 unit lower of azoles' MIC ([1]; with voriconazole): 1 mg/L; MIC ([2]; Aspergillus flavus, single agent): 4 µg/mL; MIC when added 1 log2 unit lower of azoles' MIC ([2]; with ketoconazole): >4 mg/L; MIC when added 1 log2 unit lower of azoles' MIC ([2]; with voriconazole): >4 mg/L; MIC ([3]; Aspergillus fumigatus, single agent): 4 µg/mL; MIC when added 1 log2 unit lower of azoles' MIC ([3]; with ketoconazole): 0.06 mg/L; MIC when added 1 log2 unit lower of azoles' MIC ([3]; with voriconazole): >4 mg/L; MIC ([4]; Aspergillus fumigatus, read-out: MIC): > 4 µg/mL; MIC [4]: 4 µg/mL; MIC when added 1 log2 unit lower of azoles' MIC ([4]; with ketoconazole): 0.06 mg/L; MIC when added 1 log2 unit lower of azoles' MIC ([4]; with voriconazole): >4 mg/L; MIC ([5]; Candida albicans, single agent, read-out: MIC): 2 µg/mL; MIC when added 1 log2 unit lower of azoles' MIC ([5]; with fluconazole): 2 mg/L; MIC when added 1 log2 unit lower of azoles' MIC ([5]; with ketoconazole): 1 mg/L; MIC when added 1 log2 unit lower of azoles' MIC ([5]; with voriconazole): 1 mg/L; MIC ([6]; Candidozyma auris, read-out: MIC): 2 µg/mL; MIC [6]: 4 µg/mL; MIC when added 1 log2 unit lower of azoles' MIC ([6]; with fluconazole): 0.06 mg/L; MIC when added 1 log2 unit lower of azoles' MIC ([6]; with ketoconazole): 2 mg/L; MIC when added 1 log2 unit lower of azoles' MIC ([6]; with voriconazole): 2 mg/L; MIC ([7]; Nakaseomyces glabratus, read-out: MIC): 1 µg/mL; MIC [7]: 2 µg/mL; MIC when added 1 log2 unit lower of azoles' MIC ([7]; with fluconazole): 2 mg/L; MIC when added 1 log2 unit lower of azoles' MIC ([7]; with ketoconazole): 1 mg/L; MIC when added 1 log2 unit lower of azoles' MIC ([7]; with voriconazole): 1 mg/L; MIC ([8]; Pichia kudriavzevii, single agent, read-out: MIC): 2 µg/mL; MIC when added 1 log2 unit lower of azoles' MIC ([8]; with fluconazole): 2 mg/L; MIC when added 1 log2 unit lower of azoles' MIC ([8]; with ketoconazole): 2 mg/L; MIC when added 1 log2 unit lower of azoles' MIC ([8]; with voriconazole): 2 mg/L; MIC ([9]; Pichia kudriavzevii, ATCC6258, single agent, read-out: MIC): 2 µg/mL; MIC ([9]; single agent): 1 µg/mL; MIC when added 1 log2 unit lower of azoles' MIC ([9]; with fluconazole): 2 mg/L; MIC when added 1 log2 unit lower of azoles' MIC ([9]; with ketoconazole): 1 mg/L; MIC when added 1 log2 unit lower of azoles' MIC ([9]; with voriconazole): 1 mg/L; MIC ([10]; Lodderomyces parapsilosis, read-out: MIC): 1 µg/mL; MIC [10]: 2 µg/mL; MIC when added 1 log2 unit lower of azoles' MIC ([10]; with fluconazole): 1 mg/L; MIC when added 1 log2 unit lower of azoles' MIC ([10]; with ketoconazole): 0.5 mg/L; MIC when added 1 log2 unit lower of azoles' MIC ([10]; with voriconazole): 0.5 mg/L; MIC ([11]; Lodderomyces parapsilosis, ATCC22019, single agent, read-out: MIC): 1 µg/mL; MIC ([11]; single agent): 2 µg/mL; MIC when added 1 log2 unit lower of azoles' MIC ([11]; with fluconazole): 1 mg/L; MIC when added 1 log2 unit lower of azoles' MIC ([11]; with ketoconazole): 0.5 mg/L; MIC when added 1 log2 unit lower of azoles' MIC ([11]; with voriconazole): 1 mg/L; MIC ([12]; Candida tropicalis, single agent): 1 µg/mL; MIC when added 1 log2 unit lower of azoles' MIC ([12]; with fluconazole): 1 mg/L; MIC when added 1 log2 unit lower of azoles' MIC ([12]; with ketoconazole): 1 mg/L; MIC when added 1 log2 unit lower of azoles' MIC ([12]; with voriconazole): 1 mg/L; MIC ([13]; Fusarium solani, single agent): > 4 µg/mL; MIC when added 1 log2 unit lower of azoles' MIC ([13]; with ketoconazole): 0.06 mg/L; MIC when added 1 log2 unit lower of azoles' MIC ([13]; with voriconazole): >4 mg/L
